These results are taken from PubChem BioAssay (NCI).

Each structure is given as a SMILES string.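 Grown in 96-well plates, cells were treated for 48 hours with each compound at five concentrations. Insufficient inhibition: endpoint recorded as highest concentration tested. TGI: total growth inhibition.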 Where only a bound is given, the exact number is not on record here.

The first experiment has as its system A549 NSCLC. Briefly: inhibition of tumour cell growth, NCI panel, 48 h.
`O=c1[nH]c2cc([N+](=O)[O-])ccc2nc1/C(=N/Nc1ccccc1)C(O)c1ccccc1Cl` (centres undefined): the TGI was over 100 µM.
Same read-out and setting: the value for `C=Cc1ccc(C)[n+](C[Si](C)(C)O[Si](C)(C)C)c1` was over 100 µM; that for `O=C(c1cccs1)N(C(=S)N1CCN(c2ccccn2)CC1)c1ccccc1` was over 100 µM; that for `CNS(=O)(=O)NN(C)S(=O)(=O)c1ccccc1` was over 100 µM.
Compound `CCCCNc1nc(C#N)c(N)s1` had a TGI of over 100 µM.
`Cn1cc2ccccc2c1-c1nc(F)nc(F)n1` displayed a TGI of over 100 µM.
`CC(=O)OC1COC(n2c(O)c(N=NC(N)=S)c3cc(Br)ccc32)C(OC(C)=O)C1OC(C)=O` (centres undefined) displayed a TGI of over 100 µM.
Take `O=C(CSc1nnc(-c2ccc(N=Cc3ccc(Cl)cc3)cc2)o1)Nc1ccccc1[N+](=O)[O-]`: the TGI is over 100 µM.

The next experiment concerns UACC-62 melanoma. The experiment in a line: inhibition of tumour cell growth, NCI panel, 48 h.
For `O=c1[nH]c2cc([N+](=O)[O-])ccc2nc1/C(=N/Nc1ccccc1)C(O)c1ccccc1Cl` (centres undefined), the TGI is over 100 µM.
`C=Cc1ccc(C)[n+](C[Si](C)(C)O[Si](C)(C)C)c1` registered a TGI of over 100 µM.
The compound `O=C(c1cccs1)N(C(=S)N1CCN(c2ccccn2)CC1)c1ccccc1` gave a TGI of over 100 µM.
For `CNS(=O)(=O)NN(C)S(=O)(=O)c1ccccc1`, the TGI is over 100 µM.
The same measure, in the same setting: the value for `CCCCNc1nc(C#N)c(N)s1` was over 100 µM; that for `CC(=O)OC1COC(n2c(O)c(N=NC(N)=S)c3cc(Br)ccc32)C(OC(C)=O)C1OC(C)=O` (centres undefined) was over 100 µM.
Consider `O=C(CSc1nnc(-c2ccc(N=Cc3ccc(Cl)cc3)cc2)o1)Nc1ccccc1[N+](=O)[O-]`, for which the TGI is over 100 µM.

The subject of the next experiment is RXF 393 renal. Briefly: inhibition of tumour cell growth, NCI panel, 48 h.
Compound `O=c1[nH]c2cc([N+](=O)[O-])ccc2nc1/C(=N/Nc1ccccc1)C(O)c1ccccc1Cl` (centres undefined) displayed a TGI of over 100 µM.
`O=C(c1cccs1)N(C(=S)N1CCN(c2ccccn2)CC1)c1ccccc1` gave a TGI of over 100 µM.
The same measure, in the same setting: the same measure for `CNS(=O)(=O)NN(C)S(=O)(=O)c1ccccc1`: over 100 µM; for `Cn1cc2ccccc2c1-c1nc(F)nc(F)n1`: over 100 µM.
Compound `CC(=O)OC1COC(n2c(O)c(N=NC(N)=S)c3cc(Br)ccc32)C(OC(C)=O)C1OC(C)=O` (centres undefined) came in with a TGI of over 100 µM.
Take `O=C(CSc1nnc(-c2ccc(N=Cc3ccc(Cl)cc3)cc2)o1)Nc1ccccc1[N+](=O)[O-]`: the TGI was over 100 µM.

A further experiment relates to K-562 leukemia. Briefly: inhibition of tumour cell growth, NCI panel, 48 h.
The compound `O=c1[nH]c2cc([N+](=O)[O-])ccc2nc1/C(=N/Nc1ccccc1)C(O)c1ccccc1Cl` (centres undefined) came in with a TGI of over 100 µM.
Regarding `C=Cc1ccc(C)[n+](C[Si](C)(C)O[Si](C)(C)C)c1`, the TGI was over 100 µM.
`O=C(c1cccs1)N(C(=S)N1CCN(c2ccccn2)CC1)c1ccccc1` yielded a TGI of over 100 µM.
`CNS(=O)(=O)NN(C)S(=O)(=O)c1ccccc1` displayed a TGI of over 100 µM.
In the case of `CCCCNc1nc(C#N)c(N)s1`, the TGI was over 100 µM.
Turning to `Cn1cc2ccccc2c1-c1nc(F)nc(F)n1`, the TGI is over 100 µM.
As to `CC(=O)OC1COC(n2c(O)c(N=NC(N)=S)c3cc(Br)ccc32)C(OC(C)=O)C1OC(C)=O` (centres undefined), the TGI is over 100 µM.
Same read-out and setting: the value for `O=C(CSc1nnc(-c2ccc(N=Cc3ccc(Cl)cc3)cc2)o1)Nc1ccccc1[N+](=O)[O-]` was over 100 µM.

The next experiment has as its system HL-60(TB) leukemia. The experiment in a line: inhibition of tumour cell growth, NCI panel, 48 h.
Compound `O=c1[nH]c2cc([N+](=O)[O-])ccc2nc1/C(=N/Nc1ccccc1)C(O)c1ccccc1Cl` (centres undefined) registered a TGI of over 100 µM.
Same read-out and setting: the same measure for `O=C(c1cccs1)N(C(=S)N1CCN(c2ccccn2)CC1)c1ccccc1`: over 100 µM; for `CNS(=O)(=O)NN(C)S(=O)(=O)c1ccccc1`: over 100 µM; for `CCCCNc1nc(C#N)c(N)s1`: over 100 µM.
As to `Cn1cc2ccccc2c1-c1nc(F)nc(F)n1`, the TGI was over 100 µM.
`CC(=O)OC1COC(n2c(O)c(N=NC(N)=S)c3cc(Br)ccc32)C(OC(C)=O)C1OC(C)=O` (centres undefined) gave a TGI of over 100 µM.
`O=C(CSc1nnc(-c2ccc(N=Cc3ccc(Cl)cc3)cc2)o1)Nc1ccccc1[N+](=O)[O-]` displayed a TGI of over 100 µM.

The next experiment concerns A498 renal. The experiment in a line: inhibition of tumour cell growth, NCI panel, 48 h.
`CNS(=O)(=O)NN(C)S(=O)(=O)c1ccccc1`: the TGI was over 100 µM.
In the case of `Cn1cc2ccccc2c1-c1nc(F)nc(F)n1`, the TGI was over 100 µM.

In the next experiment the test system is EKVX NSCLC. Briefly: inhibition of tumour cell growth, NCI panel, 48 h.
Compound `O=c1[nH]c2cc([N+](=O)[O-])ccc2nc1/C(=N/Nc1ccccc1)C(O)c1ccccc1Cl` (centres undefined) gave a TGI of over 100 µM.
Compound `C=Cc1ccc(C)[n+](C[Si](C)(C)O[Si](C)(C)C)c1` had a TGI of over 100 µM.
As to `CNS(=O)(=O)NN(C)S(=O)(=O)c1ccccc1`, the TGI was over 100 µM.
In turn, `Cn1cc2ccccc2c1-c1nc(F)nc(F)n1` came in with a TGI of over 100 µM.
Compound `CC(=O)OC1COC(n2c(O)c(N=NC(N)=S)c3cc(Br)ccc32)C(OC(C)=O)C1OC(C)=O` (centres undefined) showed a TGI of over 100 µM.
The compound `O=C(CSc1nnc(-c2ccc(N=Cc3ccc(Cl)cc3)cc2)o1)Nc1ccccc1[N+](=O)[O-]` returned a TGI of over 100 µM.

For another experiment, the system named is HOP-92 NSCLC. Briefly: inhibition of tumour cell growth, NCI panel, 48 h.
On to `O=c1[nH]c2cc([N+](=O)[O-])ccc2nc1/C(=N/Nc1ccccc1)C(O)c1ccccc1Cl` (centres undefined), for which the TGI was over 100 µM.
As to `O=C(c1cccs1)N(C(=S)N1CCN(c2ccccn2)CC1)c1ccccc1`, the TGI is over 100 µM.
For `CCCCNc1nc(C#N)c(N)s1`, the TGI was over 100 µM.
`Cn1cc2ccccc2c1-c1nc(F)nc(F)n1` returned a TGI of over 100 µM.
Compound `CC(=O)OC1COC(n2c(O)c(N=NC(N)=S)c3cc(Br)ccc32)C(OC(C)=O)C1OC(C)=O` (centres undefined) registered a TGI of over 100 µM.

Another experiment concerns HOP-62 NSCLC. The experiment in a line: inhibition of tumour cell growth, NCI panel, 48 h.
For `O=c1[nH]c2cc([N+](=O)[O-])ccc2nc1/C(=N/Nc1ccccc1)C(O)c1ccccc1Cl` (centres undefined), the TGI is over 100 µM.
On the same count and under the same terms, the same measure for `C=Cc1ccc(C)[n+](C[Si](C)(C)O[Si](C)(C)C)c1`: over 100 µM; for `O=C(c1cccs1)N(C(=S)N1CCN(c2ccccn2)CC1)c1ccccc1`: over 100 µM.
Consider `CNS(=O)(=O)NN(C)S(=O)(=O)c1ccccc1`, for which the TGI is over 100 µM.
The compound `CCCCNc1nc(C#N)c(N)s1` returned a TGI of over 100 µM.
Compound `Cn1cc2ccccc2c1-c1nc(F)nc(F)n1` returned a TGI of over 100 µM.
The same measure, in the same setting: the same measure for `CC(=O)OC1COC(n2c(O)c(N=NC(N)=S)c3cc(Br)ccc32)C(OC(C)=O)C1OC(C)=O` (centres undefined): over 100 µM; for `O=C(CSc1nnc(-c2ccc(N=Cc3ccc(Cl)cc3)cc2)o1)Nc1ccccc1[N+](=O)[O-]`: over 100 µM.

The next experiment concerns OVCAR-8 ovarian. The experiment in a line: inhibition of tumour cell growth, NCI panel, 48 h.
For the compound `O=c1[nH]c2cc([N+](=O)[O-])ccc2nc1/C(=N/Nc1ccccc1)C(O)c1ccccc1Cl` (centres undefined), the TGI was over 100 µM.
`C=Cc1ccc(C)[n+](C[Si](C)(C)O[Si](C)(C)C)c1`: the TGI was over 100 µM.
